In test [1] the test system is Z-138 cells. Kind of test: Z-138 Proliferation Assay (Cell Titer Glo, 5 days). The format is cell-based. Conditions: Homo sapiens. Summed up:
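Exponentially growing Z-138 cells (10,000 cells/ml) in RPMI 1640 with 10% FBS are exposed to nine-point 3-fold dilutions (final top concentration 20 μM, 0.2% DMSO) for 5 days at 37° C. Viability is measured as ATP by CellTiter-Glo luminescence. The 50% inhibitory concentration comes from a 4-parameter fit.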

In test [2] the test system is Z-138 cells. Description: Z-138 Methylation Assay (In Cell Western for symmetric di-methyl arginine and DNA content). The test is classed as cell-based. Conditions: Homo sapiens. The method, boiled down:
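Symmetric di-methyl arginine signal (800 nm) ratioed to DNA content (700 nm) by In Cell Western after four days of compound treatment of Z-138 suspension cells seeded at 50,000 cells/mL. Percent inhibition set between DMSO and 3 μM reference wells; IC50 curves from triplicates.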

[3] abbreviates: 120 h, Table A-2, 5 days, top concentration 20 μM.
Where [4] appears, read: Table A-2, 96 hours, symmetric di-methyl arginine, read-out: ICW EC50.

Molecules are shown by their SMILES.

One may read the EC50 as the concentration that produces a half-maximal response. As to `CN(C)CCOc1ccccc1OCC(=O)NC[C@H](O)CN1CCc2ccccc2C1` [Compound A88], the EC50 lay within 10 to 50 µM in the test with Z-138 cells [1] (setting [3]) and 0.101 to 1 µM with Z-138 cells [2] (setting [4]).

`CN(C)c1ncc(-c2cccc(OCC(O)CN3CCc4ccccc4C3)c2)cn1` (centres unmarked) [Compound D125]: the EC50 was 10 to 40 µM in the test on Z-138 cells [1] (Table D-2) and 1 to 10 µM with Z-138 cells [2] (Table D-2, read-out: ICW EC50).

In the case of `O=C(COc1ccccc1N1CCOCC1)NC[C@H](O)CN1CCc2ccccc2C1` [Compound A77], the EC50 with Z-138 cells [1] (setting [3]) is 1 to 10 µM; with Z-138 cells [2] (setting [4]), below 0.1 µM.

As to `Cn1cnc2ccc(-c3cncc(NCC(O)CN4CCc5ccccc5C4)c3)cc21` (centres unmarked) [Compound D199], the EC50 in the test with Z-138 cells [1] (Table D-2) was 1 to 10 µM; in the test on Z-138 cells [2] (Table D-2, read-out: ICW EC50) it was below 0.1 µM.

Turning to `Cn1ncc2ccc(-c3cccc(OCC(O)CN4CCc5ccccc5C4)c3)cc21` (centres unmarked) [Compound D106], the EC50 with Z-138 cells [1] (Table D-2) was above 20 µM; in the test on Z-138 cells [2] (Table D-2, read-out: ICW EC50), 1 to 10 µM.

Turning to `O=C(Nc1cccc(OCC(O)CN2CCc3ccccc3C2)c1)c1cnccn1` (centres unmarked) [Compound D145], the EC50 was above 20 µM in the test on Z-138 cells [1] (Table D-2) and 1 to 10 µM in the test on Z-138 cells [2] (Table D-2, read-out: ICW EC50).

For the molecule `O=C(COc1ccc2c(cnn2C2CCNC2)c1)NCC(O)CN1CCc2ccccc2C1` (centres unmarked) [Compound A95], the EC50 in the test on Z-138 cells [1] (setting [3]) lay within 10 to 50 µM; in the test on Z-138 cells [2] (setting [4]), 0.101 to 1 µM.

As for `NC(=O)c1ccc(-c2cccc(OCC(O)CN3CCc4ccccc4C3)c2)cc1` (centres unmarked) [Compound D152], the EC50 is above 20 µM with Z-138 cells [1] (Table D-2) and 1 to 10 µM in the test with Z-138 cells [2] (Table D-2, read-out: ICW EC50).

Turning to `CC(C)Oc1ccc(F)c(-c2cccc(OCC(O)CN3CCc4ccccc4C3)c2)c1` (centres unmarked) [Compound D201], the EC50 in the test with Z-138 cells [1] (Table D-2) was above 20 µM; with Z-138 cells [2] (Table D-2, read-out: ICW EC50), 1 to 10 µM.

For the molecule `NC(=O)c1cccc(-c2cccc(OCC(O)CN3CCc4ccccc4C3)c2)c1` (centres unmarked) [Compound D171], the EC50 in the test on Z-138 cells [1] (Table D-2) is above 20 µM; in the test on Z-138 cells [2] (Table D-2, read-out: ICW EC50) it was 1 to 10 µM.

As to `O=C(COc1cccc(C(=O)N2CCOCC2)c1)NCC(O)CN1CCc2ccccc2C1` (centres unmarked) [Compound A83], the EC50 in the test on Z-138 cells [1] (setting [3]) was in the range of 10 to 50 µM; with Z-138 cells [2] (setting [4]), 0.101 to 1 µM.

On to `O=C(COc1cccc(CN2CCOCC2)c1)NCC(O)CN1CCc2ccccc2C1` (centres unmarked) [Compound A75], for which the EC50 is 1 to 10 µM in the test with Z-138 cells [1] (setting [3]) and below 0.1 µM with Z-138 cells [2] (setting [4]).

With `O=C(c1cccc(-c2cccc(OCC(O)CN3CCc4ccccc4C3)c2)c1)N1CCCC1` (centres unmarked) [Compound D185], the EC50 with Z-138 cells [1] (Table D-2) was 10 to 40 µM; in the test with Z-138 cells [2] (Table D-2, read-out: ICW EC50) it was 1 to 10 µM.

Turning to `O=C(COc1ccccc1N1CCNCC1)NCC(O)CN1CCc2ccccc2C1` (centres unmarked) [Compound A79], the EC50 was 1 to 10 µM with Z-138 cells [1] (setting [3]) and 0.101 to 1 µM with Z-138 cells [2] (setting [4]).

With `OC(COc1cccc(-c2ccc3ncn(-c4ccccc4)c3c2)c1)CN1CCc2ccccc2C1` (centres unmarked) [Compound D104], the EC50 was above 20 µM in the test with Z-138 cells [1] (Table D-2) and 1 to 10 µM in the test on Z-138 cells [2] (Table D-2, read-out: ICW EC50).

As for `O=C(COc1ccccc1OCCN1CCOCC1)NC[C@H](O)CN1CCc2ccccc2C1` [Compound A86], the EC50 lay in the range of 10 to 50 µM in the test with Z-138 cells [1] (setting [3]) and 0.101 to 1 µM in the test on Z-138 cells [2] (setting [4]).

Take `Cn1cnc2ccc(-c3cccc(OCC(O)CN4CCc5ccccc5C4)c3)nc21` (centres unmarked) [Compound D189]: the EC50 in the test on Z-138 cells [1] (Table D-2) lay in the range of 0.101 to 1 µM; in the test with Z-138 cells [2] (Table D-2, read-out: ICW EC50) it was 0.101 to 1 µM.

Take `COc1ccc(Cl)cc1-c1cccc(OCC(O)CN2CCc3ccccc3C2)c1` (centres unmarked) [Compound D134]: the EC50 is above 20 µM with Z-138 cells [1] (Table D-2) and 1 to 10 µM in the test with Z-138 cells [2] (Table D-2, read-out: ICW EC50).

Regarding `Cn1cnc2ccc(-c3cncc(NCC(O)CN4CCc5ccccc5C4)n3)cc21` (centres unmarked) [Compound D121], the EC50 in the test with Z-138 cells [1] (Table D-2) was above 20 µM; in the test on Z-138 cells [2] (Table D-2, read-out: ICW EC50), 0.101 to 1 µM.

With `Cn1cnc2cnc(-c3cccc(OCC(O)CN4CCc5ccccc5C4)c3)nc21` (centres unmarked) [Compound D191], the EC50 in the test with Z-138 cells [1] (Table D-2) lay within 1 to 10 µM; with Z-138 cells [2] (Table D-2, read-out: ICW EC50) it was 0.101 to 1 µM.

For the molecule `O=C1NCc2ccc(-c3cccc(OCC(O)CN4CCc5ccccc5C4)c3)cc21` (centres unmarked) [Compound D148], the EC50 in the test with Z-138 cells [1] (Table D-2) lay within 10 to 40 µM; in the test with Z-138 cells [2] (Table D-2, read-out: ICW EC50) it was 1 to 10 µM.

`N#Cc1cccc(-c2cccc(OCC(O)CN3CCc4ccccc4C3)c2)c1` (centres unmarked) [Compound D172]: the EC50 was above 20 µM in the test on Z-138 cells [1] (Table D-2) and 1 to 10 µM with Z-138 cells [2] (Table D-2, read-out: ICW EC50).

As for `Cn1ccc2cnc(-c3cccc(OCC(O)CN4CCc5ccccc5C4)c3)nc21` (centres unmarked) [Compound D141], the EC50 in the test with Z-138 cells [1] (Table D-2) was above 20 µM; in the test with Z-138 cells [2] (Table D-2, read-out: ICW EC50) it was 0.101 to 1 µM.

As for `OC(COc1cccc(-c2cccnc2F)c1)CN1CCc2ccccc2C1` (centres unmarked) [Compound D139], the EC50 with Z-138 cells [1] (Table D-2) was above 20 µM; in the test on Z-138 cells [2] (Table D-2, read-out: ICW EC50) it was 1 to 10 µM.

With `Cc1ccncc1-c1cccc(OCC(O)CN2CCc3ccccc3C2)c1` (centres unmarked) [Compound D113], the EC50 in the test on Z-138 cells [1] (Table D-2) was 10 to 40 µM; in the test with Z-138 cells [2] (Table D-2, read-out: ICW EC50) it was 0.101 to 1 µM.
